Measurements reported in patent US20230107983A1, “COMPOUND ISOLATED FROM TORILIDIS FRUCTUS, AND ANTICANCER PHARMACEUTICAL COMPOSITION CONTAINING SAME AS ACTIVE INGREDIENT” (PHARMA-GENE CO., LTD., priority 2020, published 2023).

Key:
[1] = test system: human lung cancer cells (A549); assay: Nude mouse xenograft model of human lung cancer cells, intraperitoneal administration; format: in vivo
Experimental: Anticancer activity against lung cancer according to the intraperitoneal administration of Tr-9 was confirmed through a nude mouse xenograft model of human lung cancer cells (A549). In Example 4, it was carried out using the same animal model and method as the oral administration, except that it was administered intraperitoneally.
(§1) Specific pathogen-free (SPF) nude mice of the BALB/C strain were used as the animal model. Animals were bred in the animal room of Daedeok Campus of Hannam University maintained at a temperature of 23±3° C., relative humidity of 55±15%, ventilation frequency of 10-20 times/hr, lighting time of 12 hours(lights on at 8 am and off at 8 pm) and illuminance of 150 to 300 Lux.
(§2) For cancer cell transplantation, all cells were collected and counted on the last day of culture, and the concentration of human lung cancer cell line A549 was adjusted to 5×10^6 cells/ml using PBS. The adjusted cell culture solution was injected subcutaneously into the auxiliary region between the right scapula and chest wall at 0.2 ml (1×10^6 cells/mouse) per mouse.
(§3) The Tr-9 was dissolved in sterile PBS and 1 mM Tr-9 200 µℓ was intraperitoneally administered per mouse once a day, and all animals were weighed immediately before the start of drug (Tr-9) administration and 10 times in total from day 2 to day 23 after cancer cell transplantation (Table 4).
(§4) In Table 4 above, data values are the mean ± standard deviation. After measuring the body weight, the animals were killed using CO2 gas, and the tumor was separated and the size was measured in 3 directions using a vernier caliper for each animal. Then, the change in tumor size was expressed as a calculated value of (length × width × height)/2 (Table 4).
Tumor size increase is (Δt)= Vt—Vo, wherein Vt is the value of measuring the tumor size by date, and Vo is the value of measuring the initial tumor size.

[2] = test system: human colorectal cancer cells (HCT116); assay: Nude mouse xenograft model of human colorectal cancer cells, intraperitoneal administration; format: in vivo
Experimental: Anticancer activity against colorectal cancer according to the intraperitoneal administration of Tr-9 was confirmed through a nude mouse xenograft model of human colorectal cancer cells (HCT116). In Example 5, Example 4 was repeated except for using colorectal cancer cells.
as §1
as §2, with “colorectal” for “lung”, “HCT116” for “A549”
(§5) The Tr-9 was dissolved in sterile PBS and 1 mM Tr-9 200 µℓ was intraperitoneally administered per mouse once a day, and all animals were weighed immediately before the start of drug (Tr-9) administration and 9 times in total from day 2 to day 21 after cancer cell transplantation (Table 7).
as §4, with “7” for “4”, “8).” for “4).”
Tumor size increase is (Δt)═ Vt—Vo, wherein Vt is the value of measuring the tumor size by date, and Vo is the value of measuring the initial tumor size.

[3] = Change in mouse weight, A549 xenograft, oral administration; format: in vivo, nude mouse; parameters: Change in mouse weight: unit not given here; settings: once a day
Experimental: The Tr-9 was dissolved in sterile PBS and 1 mM Tr-9 200 µℓ was orally administered per mouse once a day, and all animals were weighed immediately before the start of drug (Tr-9) administration and 10 times in total from day 2 to day 23 after cancer cell transplantation (Table 1).
as §4, with “1” for “4”, “2).” for “4).”

[4] = Change in mouse weight, A549 xenograft, intraperitoneal administration; format: in vivo, nude mouse; parameters: Change in mouse weight: unit not given here; settings: once a day
Experimental: as §3, §4

[5] = Change in mouse weight, HCT116 xenograft, intraperitoneal administration; format: in vivo, nude mouse; parameters: Change in mouse weight: unit not given here; settings: intraperitoneal once a day
Experimental: as §5
as §4, with “7” for “4”, “8).” for “4).”

[6] = intraperitoneal once a day, Day 0, table title: Change in tumor size
[7] = intraperitoneal once a day, Day 2, table title: Change in tumor size
[8] = intraperitoneal once a day, Day 2, vs control
[9] = intraperitoneal once a day, Day 5, table title: Change in tumor size
[10] = intraperitoneal once a day, Day 5, vs control
[11] = intraperitoneal once a day, Day 7, table title: Change in tumor size
[12] = intraperitoneal once a day, Day 7, vs control
[13] = intraperitoneal once a day, Day 9, table title: Change in tumor size
[14] = intraperitoneal once a day, Day 9, vs control
[15] = intraperitoneal once a day, Day 14, table title: Change in tumor size
[16] = intraperitoneal once a day, Day 14, vs control
[17] = intraperitoneal once a day, Day 16, table title: Change in tumor size
[18] = intraperitoneal once a day, Day 16, vs control
[19] = intraperitoneal once a day, Day 21, table title: Change in tumor size
[20] = intraperitoneal once a day, Day 21, vs control

Change in mouse weight ([3]; 0 Day after drug treatment): 100.0 ±0.0
Change in mouse weight ([3]; 2 Days after drug treatment): 95.6 ±1.7
Change in mouse weight ([3]; 5 Days after drug treatment): 96.9 ±1.8
Change in mouse weight ([3]; 7 Days after drug treatment): 99.5 ±1.5
Change in mouse weight ([3]; 9 Days after drug treatment): 102.3 ±2.8
Change in mouse weight ([3]; 12 Days after drug treatment): 98.6 ±1.5
Change in mouse weight ([3]; 14 Days after drug treatment): 100.7 ±3.6
Change in mouse weight ([3]; 16 Days after drug treatment): 102.5 ±3.8
Change in mouse weight ([3]; 19 Days after drug treatment): 103.6 ±5.5
Change in mouse weight ([3]; 21 Days after drug treatment): 102.9 ±5.7
Change in mouse weight ([3]; 23 Days after drug treatment): 104.7 ±5.6
Change in mouse weight ([4]; 0 Day after drug treatment): 100.0 ±0.0
Change in mouse weight ([4]; 2 Days after drug treatment): 98.2 ±1.0
Change in mouse weight ([4]; 5 Days after drug treatment): 94.7 ±2.5
Change in mouse weight ([4]; 7 Days after drug treatment): 94.1 ±2.2
Change in mouse weight ([4]; 9 Days after drug treatment): 99.7 ±2.7
Change in mouse weight ([4]; 12 Days after drug treatment): 96.7 ±3.1
Change in mouse weight ([4]; 14 Days after drug treatment): 97.3 ±2.8
Change in mouse weight ([4]; 16 Days after drug treatment): 100.2 ±1.8
Change in mouse weight ([4]; 19 Days after drug treatment): 98.3 ±2.9
Change in mouse weight ([4]; 21 Days after drug treatment): 99.4 ±1.6
Change in mouse weight ([4]; 23 Days after drug treatment): 100.2 ±2.6
Change in mouse weight ([5]; 0 Day after drug treatment): 100.0 ±0.0
Change in mouse weight ([5]; 2 Days after drug treatment): 99.7 ±1.7
Change in mouse weight ([5]; 5 Days after drug treatment): 100.5 ±3.2
Change in mouse weight ([5]; 7 Days after drug treatment): 99.9 ±4.1
Change in mouse weight ([5]; 9 Days after drug treatment): 99.8 ±4.9
Change in mouse weight ([5]; 11 Days after drug treatment): 98.6 ±3.5
Change in mouse weight ([5]; 14 Days after drug treatment): 99.7 ±4.5
Change in mouse weight ([5]; 16 Days after drug treatment): 98.5 ±6.0
Change in mouse weight ([5]; 18 Days after drug treatment): 100.4 ±5.5
Change in mouse weight ([5]; 21 Days after drug treatment): 102.4 ±7.0
Structure (SMILES): CC(=O)OC(C)(C)C1CC2=C(C)C(=O)CC2C(C)CC1OC(=O)CC(C)C (stereo not drawn) [Tr-9]
tumor size further reduced compared to the group intraperitoneally administered with the torilin ([1]; intraperitoneal): about 17%
Tumor size increase (Vt−V0) [1, 6]: 0.0±0.0
Tumor size increase (Vt−V0) [1, 7]: 7.0±5.4
Inhibition rate (tumor size increase) [1, 8]: 48.5%
Tumor size increase (Vt−V0) [1, 9]: 13.8±8.5
Inhibition rate (tumor size increase) [1, 10]: 34.0%
Tumor size increase (Vt−V0) [1, 11]: 19.6±10.1
Inhibition rate (tumor size increase) [1, 12]: 42.2%
Tumor size increase (Vt−V0) [1, 13]: 24.4±7.1
Inhibition rate (tumor size increase) [1, 14]: 46.7%
Tumor size increase (Vt−V0) ([1]; intraperitoneal once a day, Day 12, table title: Change in tumor size): 61.1±7.0
Inhibition rate (tumor size increase) ([1]; intraperitoneal once a day, Day 12, vs control): 30.5%
Tumor size increase (Vt−V0) [1, 15]: 116.4±15.1
Inhibition rate (tumor size increase) [1, 16]: 22.7%
Tumor size increase (Vt−V0) [1, 17]: 198.3±22.8
Inhibition rate (tumor size increase) [1, 18]: 24.6%
Tumor size increase (Vt−V0) ([1]; intraperitoneal once a day, Day 19, table title: Change in tumor size): 309.2±39.5
Inhibition rate (tumor size increase) ([1]; intraperitoneal once a day, Day 19, vs control): 39.6%
Tumor size increase (Vt−V0) [1, 19]: 415.2±53.1
Inhibition rate (tumor size increase) [1, 20]: 38.9%
Tumor weight at Day 23 ([1]; intraperitoneal once a day, Day 23): 0.641 ± 0.1 g
Tumor size increase (Vt−V0) ([1]; intraperitoneal once a day, Day 23, table title: Change in tumor size): 531.8±46.5
Inhibition rate (tumor size increase) ([1]; intraperitoneal once a day, Day 23, vs control): 44.2%
tumor size compared to the control group ([1]; intraperitoneal, after day 19): statistically significantly smaller
tumor size further reduced compared to the group intraperitoneally administered with the torilin ([2]; intraperitoneal): about 10%
Tumor size increase (Vt−V0) [2, 6]: 0.0±0.0
Tumor size increase (Vt−V0) [2, 7]: 53.1±17.9
Inhibition rate (tumor size increase) [2, 8]: 19.8%
Tumor size increase (Vt−V0) [2, 9]: 139.4±40.3
Inhibition rate (tumor size increase) [2, 10]: 22.9%
Tumor size increase (Vt−V0) [2, 11]: 312.6±71.9
Inhibition rate (tumor size increase) [2, 12]: 30.1%
Tumor size increase (Vt−V0) [2, 13]: 453.9±112.5
Inhibition rate (tumor size increase) [2, 14]: 35.1%
Tumor size increase (Vt−V0) ([2]; intraperitoneal once a day, Day 11, table title: Change in tumor size): 648.7±112.0
Inhibition rate (tumor size increase) ([2]; intraperitoneal once a day, Day 11, vs control): 37.0%
Tumor size increase (Vt−V0) [2, 15]: 849.8±110.2
Inhibition rate (tumor size increase) [2, 16]: 38.3%
Tumor size increase (Vt−V0) [2, 17]: 1075.9±155.6
Inhibition rate (tumor size increase) [2, 18]: 40.1%
Tumor size increase (Vt−V0) ([2]; intraperitoneal once a day, Day 18, table title: Change in tumor size): 1326.9±216.2
Inhibition rate (tumor size increase) ([2]; intraperitoneal once a day, Day 18, vs control): 35.2%
Tumor weight at Day 21 ([2]; intraperitoneal once a day, Day 21): 2.48 ± 0.308 g
Tumor size increase (Vt−V0) [2, 19]: 1690.3±144.2
Inhibition rate (tumor size increase) [2, 20]: 35.9%
tumor size compared to the control group ([2]; intraperitoneal, after day 14): statistically significantly smaller
difference in body weight according to the administration of the drugs ([3]; day 2 to day 23): almost no difference in body weight
difference in body weight according to the administration of the drugs ([4]; day 2 to day 23): almost no difference in body weight
difference in body weight according to the administration of the drugs ([5]; day 2 to day 21): almost no difference in body weight
